Reference: BindingDB's records for doi:10.1016/S0960-894X(01)80741-1 (1993)

Experiment: Compound was tested for inhibitory activity against carboxypeptidase A

- Ki: 7.8 nM
Structure (SMILES): O=C(O)[C@@H](CS)Cc1ccccc1 [(S)-2-Mercaptomethyl-3-phenyl-propionic acid]
